Results as given in ChEMBL document CHEMBL1759957, “Synthesis and antibacterial evaluation of novel 8-fluoro Norfloxacin derivatives as potential probes for methicillin and vancomycin-resistant Staphylococcus aureus” (2011).
≈ marks a conversion by molar mass, not a printed value.

Assays:
Experiment in all cases: microbe, parasite or virus in culture
Format in all cases: functional
Staphylococcus aureus [1] = conditions: ATCC 29213, 24 h
Description: Antibacterial activity against methicillin- resistant and vancomycin resistant Staphylococcus aureus ATCC 29213 after 24 hrs by spectrophotometry

Staphylococcus aureus [2] = conditions: ATCC 25923, 24 h
Description: Antibacterial activity against methicillin- resistant Staphylococcus aureus ATCC 25923 after 24 hrs by spectrophotometry

Klebsiella pneumoniae = conditions: ATCC 27736, 24 h
Description: Antibacterial activity against Klebsiella pneumoniae ATCC 27736 after 24 hrs by spectrophotometry

| Structure (SMILES) | MIC (Staphylococcus aureus [1]) [µg/mL] | MIC (Staphylococcus aureus [2]) [µg/mL] | MIC (Klebsiella pneumoniae) [µg/mL] |
| --- | --- | --- | --- |
| CCn1cc(C(=O)O)c(=O)c2cc(F)c(N3CCN(c4nc(NC(C)C)nc(NC(C)C)n4)CC3)c(F)c21 | 0.78 (≈ 1.47 µM) | 0.39 (≈ 0.735 µM) | 0.39 (≈ 0.735 µM) |
| CCn1cc(C(=O)O)c(=O)c2cc(F)c(N3CCN(c4cc(C)nc(NCCCN5CCOCC5)n4)CC3)c(F)c21 | 0.19 (≈ 0.332 µM) | 0.22 (≈ 0.385 µM) | 0.22 (≈ 0.385 µM) |
| CCCCNc1nc(NCCCC)nc(N2CCN(c3c(F)cc4c(=O)c(C(=O)O)cn(Cc5ccc(C(F)(F)F)cc5)c4c3F)CC2)n1 | 0.39 (≈ 0.566 µM) | 3.12 (≈ 4.53 µM) | 0.39 (≈ 0.566 µM) |
| CC(C)Nc1nc(NC(C)C)nc(N2CCN(c3c(F)cc4c(=O)c(C(=O)O)cn(Cc5ccc(C(F)(F)F)cc5)c4c3F)CC2)n1 | 0.78 (≈ 1.18 µM) | 0.78 (≈ 1.18 µM) | 0.39 (≈ 0.59 µM) |
| Cc1cc(N2CCN(c3c(F)cc4c(=O)c(C(=O)O)cn(Cc5ccc(C(F)(F)F)cc5)c4c3F)CC2)nc(NC(C)C)n1 | 0.78 (≈ 1.27 µM) | 0.78 (≈ 1.27 µM) | 0.19 (≈ 0.308 µM) |
| CN1CCN(c2nc(N3CCN(C)CC3)nc(N3CCN(c4cc5c(cc4F)c(=O)c(C(=O)O)cn5Cc4ccc(C(F)(F)F)cc4)CC3)n2)CC1 |  | 25 (≈ 34.5 µM) | 12.5 (≈ 17.2 µM) |
| CCn1cc(C(=O)O)c(=O)c2cc(F)c(NCCCN3CCOCC3)c(F)c21 |  | 3.12 (≈ 7.89 µM) | 1.56 (≈ 3.95 µM) |
| CC(C)(C)Nc1c(F)cc2c(=O)c(C(=O)O)cn(Cc3ccc(C(F)(F)F)cc3)c2c1F |  | > 50 | > 50 |
| CCCCNc1c(F)cc2c(=O)c(C(=O)O)cn(Cc3ccc(C(F)(F)F)cc3)c2c1F |  | > 50 | > 50 |
| CCn1cc(C(=O)O)c(=O)c2cc(F)c(N3CCN(c4nc(NCCN5CCOCC5)nc(NCCN5CCOCC5)n4)CC3)c(F)c21 | 1.56 (≈ 2.32 µM) | 0.78 (≈ 1.16 µM) | 0.78 (≈ 1.16 µM) |
| CCCNc1c(F)cc2c(=O)c(C(=O)O)cn(Cc3ccc(C(F)(F)F)cc3)c2c1F |  | 1.56 (≈ 3.54 µM) | 3.12 (≈ 7.08 µM) |
| CCCCNc1c(F)cc2c(=O)c(C(=O)O)cn(CC)c2c1F | 0.39 (≈ 1.2 µM) | 0.39 (≈ 1.2 µM) | 0.022 (≈ 0.0678 µM) |
| CCn1cc(C(=O)O)c(=O)c2cc(F)c(N3CCN(c4ccccc4)CC3)c(F)c21 | 0.09 (≈ 0.218 µM) | 0.39 (≈ 0.943 µM) | 0.09 (≈ 0.218 µM) |
| Cc1cc(N2CCN(c3c(F)cc4c(=O)c(C(=O)O)cn(Cc5ccc(C(F)(F)F)cc5)c4c3F)CC2)nc(N2CCOCC2)n1 | 1.56 (≈ 2.42 µM) | 1.56 (≈ 2.42 µM) | 0.78 (≈ 1.21 µM) |
| CCn1cc(C(=O)O)c(=O)c2cc(F)c(NC(C)C)c(F)c21 | 0.78 (≈ 2.51 µM) | 0.78 (≈ 2.51 µM) | 0.09 (≈ 0.29 µM) |
| O=C(O)c1cn(Cc2ccc(C(F)(F)F)cc2)c2c(F)c(N3CCN(c4nc(N5CCOCC5)nc(N5CCOCC5)n4)CC3)c(F)cc2c1=O | 1.56 (≈ 2.18 µM) | 3.12 (≈ 4.35 µM) | 1.56 (≈ 2.18 µM) |
| CCn1cc(C(=O)O)c(=O)c2cc(F)c(N3CCN(c4nc(N5CCCCC5)nc(N5CCCCC5)n4)CC3)c(F)c21 |  | > 50 | > 50 |
| CCn1cc(C(=O)O)c(=O)c2cc(F)c(N3CCN(C)CC3)c(F)c21 | 0.19 (≈ 0.541 µM) | 0.19 (≈ 0.541 µM) | 0.011 (≈ 0.0313 µM) |
| CCn1cc(C(=O)O)c(=O)c2cc(F)c(N3CCNCC3)cc21 [NORFLOXACIN] | 1.56 (≈ 4.89 µM) | 0.78 (≈ 2.44 µM) | 0.39 (≈ 1.22 µM) |
| CCn1cc(C(=O)O)c(=O)c2cc(F)c(NC(C)(C)C)c(F)c21 |  | 12.5 (≈ 38.5 µM) | 0.09 (≈ 0.277 µM) |
| CCn1cc(C(=O)O)c(=O)c2cc(F)c(N3CCCCC3)c(F)c21 | 0.39 (≈ 1.16 µM) | 0.19 (≈ 0.565 µM) | 0.19 (≈ 0.565 µM) |
| CCn1cc(C(=O)O)c(=O)c2cc(F)c(N3CCN(c4cc(C)nc(N5CCCCC5)n4)CC3)c(F)c21 | 0.39 (≈ 0.761 µM) | 0.39 (≈ 0.761 µM) | 0.045 (≈ 0.0878 µM) |
| O=C(O)c1cn(C2CC2)c2cc(N3CCNCC3)c(F)cc2c1=O [CIPROFLOXACIN] | 0.38 (≈ 1.15 µM) | 0.09 (≈ 0.272 µM) | 0.19 (≈ 0.573 µM) |
| O=C(O)c1cn(Cc2ccc(C(F)(F)F)cc2)c2c(F)c(N3CCN(c4ccccc4)CC3)c(F)cc2c1=O | 1.56 (≈ 2.87 µM) | 0.78 (≈ 1.44 µM) | 0.39 (≈ 0.718 µM) |
| CCn1cc(C(=O)O)c(=O)c2cc(F)c(NCCN3CCOCC3)c(F)c21 |  | 3.12 (≈ 8.18 µM) | 1.56 (≈ 4.09 µM) |
| O=C(O)c1cn(Cc2ccc(C(F)(F)F)cc2)c2c(F)c(NCCN3CCOCC3)c(F)cc2c1=O |  | > 50 | 12.5 (≈ 24.4 µM) |

| Structure (SMILES) | MIC (Staphylococcus aureus [1]) [µg/mL] | MIC (Staphylococcus aureus [2]) [µg/mL] | MIC (Klebsiella pneumoniae) [µg/mL] |
| --- | --- | --- | --- |
| CC(C)Nc1c(F)cc2c(=O)c(C(=O)O)cn(Cc3ccc(C(F)(F)F)cc3)c2c1F |  | 3.12 (≈ 7.08 µM) | 1.56 (≈ 3.54 µM) |
| CCn1cc(C(=O)O)c(=O)c2cc(F)c(N3CCN(c4cc(C)nc(NC(C)C)n4)CC3)c(F)c21 | 0.19 (≈ 0.391 µM) | 0.22 (≈ 0.452 µM) | 0.011 (≈ 0.0226 µM) |
| O=C(O)c1cn(Cc2ccc(C(F)(F)F)cc2)c2c(F)c(N3CCN(c4nc(NCCN5CCOCC5)nc(NCCN5CCOCC5)n4)CC3)c(F)cc2c1=O |  | 12.5 (≈ 15.6 µM) | 6.25 (≈ 7.79 µM) |
| CCCNc1nc(C)cc(N2CCN(c3c(F)cc4c(=O)c(C(=O)O)cn(Cc5ccc(C(F)(F)F)cc5)c4c3F)CC2)n1 | 3.12 (≈ 5.06 µM) | 1.56 (≈ 2.53 µM) | 1.56 (≈ 2.53 µM) |
| CCN1CCN(c2c(F)cc3c(=O)c(C(=O)O)cn(CC)c3c2F)CC1 | 0.39 (≈ 1.07 µM) | 0.78 (≈ 2.13 µM) | 0.19 (≈ 0.52 µM) |
| CN1CCN(c2c(F)cc3c(=O)c(C(=O)O)cn(Cc4ccc(C(F)(F)F)cc4)c3c2F)CC1 |  | > 50 | > 50 |
| CCn1cc(C(=O)O)c(=O)c2cc(F)c(N3CCNCC3)c(F)c21 | 0.39 (≈ 1.16 µM) | 0.78 (≈ 2.31 µM) | 0.045 (≈ 0.133 µM) |
| Cc1cc(N2CCN(c3cc4c(cc3F)c(=O)c(C(=O)O)cn4Cc3ccc(C(F)(F)F)cc3)CC2)nc(N2CCN(C)CC2)n1 | 12.5 (≈ 19.5 µM) | 6.25 (≈ 9.77 µM) | 6.25 (≈ 9.77 µM) |
| CCCCNc1nc(C)cc(N2CCN(c3c(F)cc4c(=O)c(C(=O)O)cn(CC)c4c3F)CC2)n1 | 0.09 (≈ 0.18 µM) | 0.78 (≈ 1.56 µM) | 0.78 (≈ 1.56 µM) |
| CCCNc1nc(C)cc(N2CCN(c3c(F)cc4c(=O)c(C(=O)O)cn(CC)c4c3F)CC2)n1 | 0.39 (≈ 0.802 µM) | 0.39 (≈ 0.802 µM) | 0.09 (≈ 0.185 µM) |
| CCn1cc(C(=O)O)c(=O)c2cc(F)c(N3CCN(Cc4ccccc4)CC3)c(F)c21 | 0.19 (≈ 0.444 µM) | 0.19 (≈ 0.444 µM) | 0.011 (≈ 0.0257 µM) |
| CCn1cc(C(=O)O)c(=O)c2cc(F)c(N3CCN(c4cc(C)nc(NCCN5CCOCC5)n4)CC3)c(F)c21 | 0.19 (≈ 0.341 µM) | 0.22 (≈ 0.395 µM) | 0.22 (≈ 0.395 µM) |
| O=C(O)c1cn(Cc2ccc(C(F)(F)F)cc2)c2c(F)c(N3CCCCC3)c(F)cc2c1=O |  | > 50 | 12.5 (≈ 26.8 µM) |
| O=C(O)c1cn(Cc2ccc(C(F)(F)F)cc2)c2c(F)c(NCCCN3CCOCC3)c(F)cc2c1=O |  | > 50 | 25 (≈ 47.6 µM) |
| CCCNc1c(F)cc2c(=O)c(C(=O)O)cn(CC)c2c1F |  | 12.5 (≈ 40.3 µM) | 0.78 (≈ 2.51 µM) |
| O=C(O)c1cn(Cc2ccc(C(F)(F)F)cc2)c2c(F)c(N3CCN(c4nc(N5CCCCC5)nc(N5CCCCC5)n4)CC3)c(F)cc2c1=O |  | 50 (≈ 70.2 µM) | 50 (≈ 70.2 µM) |
| O=C(O)c1cn(Cc2ccc(C(F)(F)F)cc2)c2c(F)c(N3CCOCC3)c(F)cc2c1=O |  | 12.5 (≈ 26.7 µM) | 12.5 (≈ 26.7 µM) |
| CCN1CCN(c2c(F)cc3c(=O)c(C(=O)O)cn(Cc4ccc(C(F)(F)F)cc4)c3c2F)CC1 |  | > 50 | > 50 |
| Cc1cc(N2CCN(c3c(F)cc4c(=O)c(C(=O)O)cn(Cc5ccc(C(F)(F)F)cc5)c4c3F)CC2)nc(NCCCN2CCOCC2)n1 |  | 25 (≈ 35.6 µM) | 6.25 (≈ 8.91 µM) |
| CCn1cc(C(=O)O)c(=O)c2cc(F)c(N3CCN(c4nc(NCCCN5CCOCC5)nc(NCCCN5CCOCC5)n4)CC3)c(F)c21 |  | 12.5 (≈ 17.8 µM) | 12.5 (≈ 17.8 µM) |
| CCn1cc(C(=O)O)c(=O)c2cc(F)c(N3CCN(c4cc(C)nc(N5CCN(C)CC5)n4)CC3)cc21 |  | > 50 | > 50 |
| O=C(O)c1cn(Cc2ccc(C(F)(F)F)cc2)c2c(F)c(N3CCNCC3)c(F)cc2c1=O |  | > 50 | 12.5 (≈ 26.7 µM) |
| O=C(O)c1cn(Cc2ccc(C(F)(F)F)cc2)c2c(F)c(N3CCN(c4nc(NCCCN5CCOCC5)nc(NCCCN5CCOCC5)n4)CC3)c(F)cc2c1=O |  | > 50 | 50 (≈ 60.2 µM) |
| CCn1cc(C(=O)O)c(=O)c2cc(F)c(N3CCN(c4nc(NC(C)(C)C)nc(NC(C)(C)C)n4)CC3)c(F)c21 |  | 3.12 (≈ 5.59 µM) | 0.39 (≈ 0.698 µM) |
| O=C(O)c1cn(Cc2ccc(C(F)(F)F)cc2)c2c(F)c(N3CCN(Cc4ccccc4)CC3)c(F)cc2c1=O |  | 1.56 (≈ 2.8 µM) | 1.56 (≈ 2.8 µM) |
| CCn1cc(C(=O)O)c(=O)c2cc(F)c(N3CCN(c4nc(N5CCOCC5)nc(N5CCOCC5)n4)CC3)c(F)c21 |  | 3.12 (≈ 5.32 µM) | 3.12 (≈ 5.32 µM) |
